Experimental data reported in patent publication US6407079B1, “Pharmaceutical compositions containing drugs which are instable or sparingly soluble in water and methods for their preparation” (Janssen Pharmaceutica N.V., priority 1985, dated 2002).
≈ marks a conversion by molar mass, not a printed value. Like-named read-outs stand apart in the source and are kept apart here.

Tests used:
[1] = 24 h
[2] = Solubility of drugs in 4% aqueous hydroxypropyl-methyl-β-cyclodextrin solution (Example 2B); conditions: in water, 4% hydroxypropyl-methyl-β-cyclodextrin (DS 0.96; MS 0.43)
rats = format: in vivo
Protocol: The acute intravenous toxicity of some β-cyclodextrins was tested on rats with the following results.

[3] = cited from earlier work
human red blood cells = assay: Haemolytic effect on human red blood cells; format: cell-based; conditions: 30 minutes at 37° C., optical density at 540 nm
Protocol: The haemolytic effect of the methylether according to German Offenlegungsschrift 31 18 218 was compared to that of an ether used according to the invention. To this end 100 μl of a physiological sodium chloride solution with a cyclodextrin content of 10%, 800 μl of a buffer (400 mg MOPS, 36 mg Na2HPO4.2H2O, 1,6 g NaCl in 200 ml H2O) and 100 μl of a suspension of human red blood cells (three times washed with sodium chloride solution) were mixed for 30 minutes at 37° C. Thereafter the mixture was centrifuged and the optical density was determined at 540 nm.
a) 100 μl sodium chloride solution+buffer+0% haemolysis
b) 900 μl water→100% haemolysis

[4] = German Offenlegungsschrift 31 18 218; cited from earlier work
[5] = Storage stability of indometacin solutions, HPLC (Example 3); format: physicochemical; conditions: for Indometacin content: 21° C.
Protocol: In 10 ml phosphate buffer solution 0.7 g hydroxyethyl-β-cyclodextrin (MS 0.43) were dissolved together with 0.04 g indometacin at 25° C. until a clear solution was formed. […] (B). In a parallel test a saturated indometacin solution in a phosphate buffer solution (0.21 mg/ml) was stored under the same conditions (A). The great improved stability of the composition according to the invention is apparent.

physchem = conditions: for solubility at 24 h: 25 °C, thermodynamic from solid; for Ratio S1:S2: 24 h, pH 6.6
[6] = Dissolution rate of medroxyprogesterone acetate from tablet (Example 5); format: physicochemical; conditions: tablet with hydroxyethyl-β-cyclodextrin (MS 0.43), 5 mg drug per unit dose
Protocol: In 100 ml water 7 g hydroxyethyl-β-cyclodextrin (MS 0.43) and 0.5 g medroxyprogesterone acetate were dissolved. The water was then evaporated in a rotation evaporator The residue (75 mg) was powdered and after addition of 366 mg calcium hydrogen phosphate.2H2O, 60 mg corn starch, 120 mg cellulose powder (microcrystalline), 4.2 mg highly dispersed silica (AEROSIL® 200) and 4.8 mg magnesium stearate tablets with a weight of 630.0 mg and comprising 5 mg drug per unit dose were made. The dissolution rate of the medroxyprogesterone acetate from this formulation is 21 times higher when compared to a tablet comprising the same inert ingredients without addition of the β-cyclodextrin ether.

[7] = pH 6.6, aqueous with cosolvent or surfactant or cyclodextrin

For `COC(=O)Nc1nc2cc(C(=O)c3ccc(F)cc3)ccc2[nH]1` [Flubendazole], the “R, ratio of saturation solubility with and without β-cyclodextrin derivative” value [1] was 30.

In the case of `CCOC(=O)c1cncn1[C@H](C)c1ccccc1` [Etomidate], the “R, ratio of saturation solubility with and without β-cyclodextrin derivative” value [2] is reported as 8.5.

With `CN(C)C(=O)C(CCN1CCC(O)(c2ccc(Cl)cc2)CC1)(c1ccccc1)c1ccccc1` [Loperamide] the “R, ratio of saturation solubility with and without β-cyclodextrin derivative” value [2] was 62.

In the case of `CCOC(=O)Nc1ccc(SC[C@@H]2CO[C@@](Cn3ccnc3)(c3ccc(Cl)cc3Cl)O2)cc1` [Tubulazole], the “R, ratio of saturation solubility with and without β-cyclodextrin derivative” value [2] is reported as 43.

For `OC[C@H]1O[C@@H]2O[C@H]3[C@H](O)[C@@H](O)[C@@H](O[C@H]4[C@H](O)[C@@H](O)[C@@H](O[C@H]5[C@H](O)[C@@H](O)[C@@H](O[C@H]6[C@H](O)[C@@H](O)[C@@H](O[C@H]7[C@H](O)[C@@H](O)[C@@H](O[C@H]8[C@H](O)[C@@H](O)[C@@H](O[C@H]1[C@H](O)[C@H]2O)O[C@@H]8CO)O[C@@H]7CO)O[C@@H]6CO)O[C@@H]5CO)O[C@@H]4CO)O[C@@H]3CO` [β-cyclodextrin], the “LD50 in rats (i.v.)” value (rats) is given as 453 mg/kg bodyweight and the Water solubility [3] is given as 1.8 g/100 ml.

For “dimethyl-β-cyclodextrin [dimethyl-β-cyclodextrin (DS 2.0)]”, the “LD50 in rats (i.v.)” value (rats) was 200-207 mg/kg bodyweight, the “C50%, concentration at which 50% haemolysis occurred” value (human red blood cells) was 0.33% and the “C100%, concentration at which 100% haemolysis occurred” value (human red blood cells) was 0.5%.

In the case of `CC(=O)N1CCN(c2ccc(OCC3COC(Cn4ccnc4)(c4ccc(Cl)cc4Cl)O3)cc2)CC1` (stereo not shown) [Ketoconazole], the “R, ratio of saturation solubility with and without β-cyclodextrin derivative” value [1] is reported as 85.

In the case of `COc1ccc2c(c1)c(CC(=O)O)c(C)n2C(=O)c1ccc(Cl)cc1` [Indometacine], the “Increase of water solubility with the 2,6-di-O-methyl derivative of β-cyclodextrin” value [4] is listed as 20.4 fold, the Indometacin content ([5]; A: saturated solution in phosphate buffer, 0 weeks) is listed as 100.1% and the Indometacin content ([5]; A: saturated solution in phosphate buffer, 2 weeks) is listed as 91.2%. The Indometacin content ([5]; A: saturated solution in phosphate buffer, 4 weeks) was 79.1%, the Indometacin content ([5]; A: saturated solution in phosphate buffer, 6 weeks) was 69.8% and the Indometacin content ([5]; A: saturated solution in phosphate buffer, 8 weeks) was 64.8%. The Indometacin content ([5]; B: with hydroxyethyl-β-cyclodextrin (MS 0.43) in phosphate buffer, 0 weeks) was 99.7%, the Indometacin content ([5]; B: with hydroxyethyl-β-cyclodextrin (MS 0.43) in phosphate buffer, 2 weeks) was 99.9% and the Indometacin content ([5]; B: with hydroxyethyl-β-cyclodextrin (MS 0.43) in phosphate buffer, 4 weeks) was 98.1%. For the same compound, the Indometacin content ([5]; B: with hydroxyethyl-β-cyclodextrin (MS 0.43) in phosphate buffer, 6 weeks) was 98.6%, the Indometacin content ([5]; B: with hydroxyethyl-β-cyclodextrin (MS 0.43) in phosphate buffer, 8 weeks) was 98.4% and the “Concentration of saturated indometacin solution in phosphate buffer solution” value ([5]; phosphate buffer solution, no cyclodextrin) was 210 µg/mL. For the same compound, the solubility at 24 h (physchem; pH 6.6, aqueous buffer) was 190 µg/mL (≈ 0.531 mM), the solubility at 24 h (physchem; [7]) was 5720 µg/mL (≈ 16 mM) and the “Ratio S1:S2” value (physchem) was 1:30.1.

With `CCC(C)n1ncn(-c2ccc(N3CCN(c4ccc(OCC5COC(Cn6cncn6)(c6ccc(Cl)cc6Cl)O5)cc4)CC3)cc2)c1=O` (stereo not shown) [Itraconazole] the “R, ratio of saturation solubility with and without β-cyclodextrin derivative” value ([1]; pH 2.5) was 75 and the “R, ratio of saturation solubility with and without β-cyclodextrin derivative” value ([1]; pH 5) was 96.

In the case of `CC(=O)O[C@]1(C(C)=O)CC[C@H]2[C@@H]3C[C@H](C)C4=CC(=O)CC[C@]4(C)[C@H]3CC[C@@]21C` [medroxyprogesterone acetate], the “Dissolution rate, times higher than tablet without β-cyclodextrin ether” value [6] is reported as 21 times.

In the case of `C[C@@H]1CN([C@H]2CC[C@](C#N)(c3ccc(F)cc3)CC2)CC[C@]1(C(=O)O)c1ccccc1` [Levocabastine], the “R, ratio of saturation solubility with and without β-cyclodextrin derivative” value ([1]; pH 7.4) is reported as 8 and the “R, ratio of saturation solubility with and without β-cyclodextrin derivative” value ([1]; pH 9.5) is reported as 81.

For `CC(=O)[C@H]1CC[C@H]2[C@@H]3CCC4=CC(=O)CC[C@]4(C)[C@H]3CC[C@]12C` [Progesterone], the solubility at 24 h (physchem; pH 6.6, aqueous buffer) was 7.1 µg/mL (≈ 0.0226 mM), the solubility at 24 h (physchem; [7]) was 7690 µg/mL (≈ 24.5 mM) and the “Ratio S1:S2” value (physchem) was 1:1083.0.

With `COc1cc(N)c(Cl)cc1C(=O)NC1CCN(CCCOc2ccc(F)cc2)CC1OC` (stereo not shown) [Cisapride] the “R, ratio of saturation solubility with and without β-cyclodextrin derivative” value [1] was 3.

`C[C@@H]1C[C@H]2[C@@H]3CCC4=CC(=O)C=C[C@]4(C)[C@@]3(F)[C@@H](O)C[C@]2(C)[C@@]1(O)C(=O)CO` [Dexamethasone] gave a solubility at 24 h (physchem; pH 6.6, aqueous buffer) of 83 µg/mL (≈ 0.211 mM) and a solubility at 24 h (physchem; [7]) of 14300 µg/mL (≈ 36.4 mM).

In the case of `Fc1ccc(C(c2ccc(F)cc2)N2CCN(C/C=C/c3ccccc3)CC2)cc1` [Flunarizine], the “R, ratio of saturation solubility with and without β-cyclodextrin derivative” value [1] is reported as 18.
